Results on 26 compounds are retold here after patent US10722514B2 (FLX Bio, Inc., priority 2017, dated 2020).

In general, IC50 refers to the concentration that gives 50% inhibition.

For the first assay, the target named is T1, recombinant full-length USP7 (Homo sapiens, UniProt Q93009).
T1 construct: A 25 μl reaction volume containing recombinant full-length USP7 (62 pM)
T1 sequence (Q93009 whole entry): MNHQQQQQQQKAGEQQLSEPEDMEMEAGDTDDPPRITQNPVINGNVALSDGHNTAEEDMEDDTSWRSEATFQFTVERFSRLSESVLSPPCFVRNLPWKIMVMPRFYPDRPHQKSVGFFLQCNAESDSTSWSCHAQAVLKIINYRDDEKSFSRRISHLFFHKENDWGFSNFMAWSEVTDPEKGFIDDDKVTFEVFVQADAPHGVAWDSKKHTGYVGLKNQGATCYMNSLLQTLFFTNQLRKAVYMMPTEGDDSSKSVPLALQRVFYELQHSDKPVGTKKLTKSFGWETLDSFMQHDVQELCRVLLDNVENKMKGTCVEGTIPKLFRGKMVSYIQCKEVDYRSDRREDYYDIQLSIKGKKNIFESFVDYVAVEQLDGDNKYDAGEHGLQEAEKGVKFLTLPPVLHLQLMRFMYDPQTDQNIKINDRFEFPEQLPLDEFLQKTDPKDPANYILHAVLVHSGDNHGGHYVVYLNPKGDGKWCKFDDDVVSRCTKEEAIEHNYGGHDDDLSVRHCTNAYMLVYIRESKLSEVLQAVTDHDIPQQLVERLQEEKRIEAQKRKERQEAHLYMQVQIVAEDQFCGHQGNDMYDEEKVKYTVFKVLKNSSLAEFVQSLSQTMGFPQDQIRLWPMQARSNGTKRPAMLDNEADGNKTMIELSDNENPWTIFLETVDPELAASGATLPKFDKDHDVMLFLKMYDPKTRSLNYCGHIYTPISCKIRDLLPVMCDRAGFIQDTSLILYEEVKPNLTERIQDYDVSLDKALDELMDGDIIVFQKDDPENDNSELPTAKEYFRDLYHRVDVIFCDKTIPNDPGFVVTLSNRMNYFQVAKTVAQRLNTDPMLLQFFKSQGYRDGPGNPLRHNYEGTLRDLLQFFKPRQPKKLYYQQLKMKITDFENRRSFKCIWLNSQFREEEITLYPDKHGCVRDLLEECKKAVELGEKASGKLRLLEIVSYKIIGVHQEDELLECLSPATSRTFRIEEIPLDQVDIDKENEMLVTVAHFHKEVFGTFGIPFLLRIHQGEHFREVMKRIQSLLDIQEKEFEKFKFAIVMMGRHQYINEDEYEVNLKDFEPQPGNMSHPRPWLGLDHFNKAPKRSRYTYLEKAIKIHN
Put plainly: USP7-mediated ubiquitin-rhodamine cleavage assay. Type of assay: biochemical. The note with it: recombinant full-length USP7 62 pM; ubiquitin-rhodamine 100 nM; 30-minute incubation with compound, 1 hour reaction at room temperature; read-out: Potency: USP7 IC50. The method, boiled down:
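Full-length recombinant USP7 (62 pM) in 20 mM HEPES pH 7.3, 150 mM NaCl, 1 mM TCEP, 125 μg/ml BSA, 1% DMSO, preincubated with compound 30 min at RT. Ubiquitin-rhodamine (100 nM final) cleaved 1 h at RT in the dark, stopped with acetic acid; rhodamine fluorescence read, IC50 by 4-parameter nonlinear fit.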
As for `Cc1cc(Cl)cc(-c2ccnc3cc(Cn4c(=O)ccn(CC(F)(F)F)c4=O)sc23)c1O[C@@H]1CCNC[C@@H]1C` [Example 173, 3-((7-(5-Chloro-3-methyl-2-(((3S,4R)-3-methylpiperidin-4-yl)oxy)phenyl)thieno[3,2-b]pyridin-2-yl)methyl)-1-(2,2,2-trifluoroethyl)pyrimidine-2,4(1H,3H)-dione], the IC50 is less than 1000 nM.

For `Cc1cc(Cl)cc(-c2ccnc3cc(CO)sc23)c1OC(C)C1CNC1` (centres unmarked) [Example 32, (7-(2-(1-(Azetidin-3-yl)ethoxy)-5-chloro-3-methylphenyl)thieno[3,2-b]pyridin-2-yl)methanol], the IC50 lay within 10000 to 30000 nM.

Regarding `Cc1cc(Cl)cc(-c2ccnc3cc(CN4C(=O)C5CCCCN5C4=O)sc23)c1O[C@@H]1CNC[C@@H]1F` (stereo partly drawn) [Example 138, 2-((7-(5-Chloro-2-(((3R,4S)-4-fluoropyrrolidin-3-yl)oxy)-3-methylphenyl)thieno[3,2-b]pyridin-2-yl)methyl)tetrahydroimidazo[1,5-a]pyridine-1,3(2H,5H)-dione], the IC50 was less than 1000 nM.

Take `Cc1cc(Cl)cc(-c2ncnc3cc(CN4C(=O)CCCC4=O)sc23)c1O[C@H]1CCCNC1` [Example 260, (S)-1-((4-(5-Chloro-3-methyl-2-(piperidin-3-yloxy)phenyl)thieno[3,2-d]pyrimidin-6-yl)methyl)piperidine-2,6-dione]: the 50% inhibitory concentration (IC50) is less than 1000 nM.

On to `Cc1cc(Cl)cc(-c2ccnc3cc(CN4C(=O)C5CC5C4=O)sc23)c1O[C@H]1CCCNC1` (stereo partly drawn) [Example 244, 3-((7-(5-Chloro-3-methyl-2-(((S)-piperidin-3-yl)oxy)phenyl)thieno[3,2-b]pyridin-2-yl)methyl)-3-azabicyclo[3.1.0]hexane-2,4-dione], for which the IC50 is less than 1000 nM.

Take `CCC(O)c1cc2nccc(-c3cc(Cl)cc(C)c3OC3CCN(C)CC3)c2s1` (centres unmarked) [Example 188, 1-(7-(5-Chloro-3-methyl-2-((1-methylpiperidin-4-yl)oxy)phenyl)thieno[3,2-b]pyridin-2-yl)propan-1-ol]: the IC50 was in the range of 1000 to 10000 nM.

As for `Cc1cc(C#N)cc(-c2ncnc3cc(CN4C(=O)CCC4=O)sc23)c1O[C@@H]1CNC[C@@H]1F` [Example 109, 3-(6-((2,5-Dioxopyrrolidin-1-yl)methyl)thieno[3,2-d]pyrimidin-4-yl)-4-(((3R,4S)-4-fluoropyrrolidin-3-yl)oxy)-5-methylbenzonitrile], the IC50 was less than 1000 nM.

Consider `Cc1cc(Cl)cc(-c2ccnc3cc(CO)sc23)c1O[C@@H]1CCCC[C@@H]1N` [Example 196, (7-(2-(((1R,2S)-2-Aminocyclohexyl)oxy)-5-chloro-3-methylphenyl)thieno[3,2-b]pyridin-2-yl)methanol], for which the IC50 was more than 30000 nM.

For the compound `Cc1cc(Cl)cc(-c2ccnc3cc(CO)sc23)c1OC[C@@H]1CCN1` [Example 18, (S)-(7-(2-(Azetidin-2-ylmethoxy)-5-chloro-3-methylphenyl)thieno[3,2-b]pyridin-2-yl)methanol], the IC50 lay in the range of 10000 to 30000 nM.

As to `Cc1cc(Cl)cc(-c2ccnc3cc(CN4C(=O)CCC4=O)sc23)c1O[C@@H]1CCNC[C@@H]1C` [Example 303, 1-[[7-[5-chloro-3-methyl-2-[[(3S,4R)-3-methyl-4-piperidyl]oxy]phenyl]thieno[3,2-b]pyridin-2-yl]methyl]pyrrolidine-2,5-dione], the 50% inhibitory concentration (IC50) is less than 1000 nM.

In the case of `Cc1cc(Cl)cc(-c2ccnc3cc(CN4C(=O)CCC4=O)sc23)c1OC1CCN(CC(F)(F)F)CC1` [Example 194, 1-((7-(5-Chloro-3-methyl-2-((1-(2,2,2-trifluoroethyl)piperidin-4-yl)oxy)phenyl)thieno[3,2-b]pyridin-2-yl)methyl)pyrrolidine-2,5-dione], the concentration for half-maximal inhibition (IC50) lay within 1000 to 10000 nM.

Take `Cc1cc(Cl)cc(-c2ccnc3cc(CN4C(=O)CCC4=O)sc23)c1O[C@@H]1CNC[C@@H]1N=[N+]=[N-]` [Example 83, 1-((7-(2-(((3R,4S)-4-Azidopyrrolidin-3-yl)oxy)-5-chloro-3-methylphenyl)thieno[3,2-b]pyridin-2-yl)methyl)pyrrolidine-2,5-dione]: the IC50 was less than 1000 nM.

Regarding `Cc1cc(Cl)cc(-c2ccnc3cc(Cn4c(=O)ccn(CC(F)F)c4=O)sc23)c1O[C@H]1CCCNC1` [Example 284, 3-[[7-[5-chloro-3-methyl-2-[[(3S)-3-piperidyl]oxy]phenyl]thieno[3,2-b]pyridin-2-yl]methyl]-1-(2,2-difluoroethyl)pyrimidine-2,4-dione; 2,2,2-trifluoroacetic acid], the IC50 is less than 1000 nM.

Turning to `Cc1cc(Cl)cc(-c2ccnc3cc(CN4C(=O)C5C(C4=O)C5(C)C)sc23)c1O[C@H]1CCCN[C@H]1C` (stereo partly drawn) [Example 363, 3-[[7-[5-chloro-3-methyl-2-[[(2S,3S)-2-methyl-3-piperidyl]oxy]phenyl]thieno[3,2-b]pyridin-2-yl]methyl]-6,6-dimethyl-3-azabicyclo[3.1.0]hexane-2,4-dione; 2,2,2-trifluoroacetic acid], the IC50 was less than 1000 nM.

As for `Cc1cc(Cl)cc(-c2ccnc3cc(CN4C(=O)CCC4=O)sc23)c1O[C@@H]1CNC[C@@H]1CF` [Example 108, 1-((7-(5-Chloro-2-(((3S,4S)-4-(fluoromethyl)pyrrolidin-3-yl)oxy)-3-methylphenyl)thieno[3,2-b]pyridin-2-yl)methyl)pyrrolidine-2,5-dione], the IC50 is less than 1000 nM.

As to `CCN1C[C@H]2C[C@@H]1[C@H](Oc1c(C)cc(Cl)cc1-c1ccnc3cc(CN4C(=O)C5CC5C4=O)sc13)C2` (stereo partly drawn) [Example 320, 3-[[7-[5-chloro-2-[[(1S,4R,5R)-3-ethyl-3-azabicyclo[2.2.1]heptan-5-yl]oxy]-3-methyl-phenyl]thieno[3,2-b]pyridin-2-yl]methyl]-3-azabicyclo[3.1.0]hexane-2,4-dione], the IC50 is less than 1000 nM.

The same assay, now with this note: recombinant full-length USP7 62 pM; ubiquitin-rhodamine 100 nM; 30-minute incubation, 1 hour reaction at room temperature; read-out: Potency (USP7 IC50).
Regarding `Cc1cc(Cl)cc(-c2ccnc3cc(Cn4c(=O)ccn(CC(F)(F)F)c4=O)sc23)c1OC1CC2(COCCN2)C1` (centres unmarked) [Example 697, 3-[[7-[5-chloro-3-methyl-2-(8-oxa-5-azaspiro[3.5]nonan-2-yloxy)phenyl]thieno[3,2-b]pyridin-2-yl]methyl]-1-(2,2,2-trifluoroethyl)pyrimidine-2,4-dione], the half-maximal inhibitory concentration (IC50) is less than 1000 nM.

Staying with this assay, now noted: recombinant full-length USP7 62 pM; ubiquitin-rhodamine 100 nM; 30-minute pre-incubation, 1 hour reaction at room temperature; read-out: Potency (USP7 IC50).
With `Cc1cc(Cl)cc(-c2ccnc3cc(Cn4c(=O)ccn(C)c4=O)sc23)c1OCC1(C(F)F)CNC1` [Example 533, 3-[[7-[5-chloro-2-[[3-(difluoromethyl)azetidin-3-yl]methoxy]-3-methyl-phenyl]thieno[3,2-b]pyridin-2-yl]methyl]-1-methyl-pyrimidine-2,4-dione], the IC50 is less than 1000 nM.

`Cc1cc(Cl)cc(-c2ncnc3cc(Cn4c(=O)ccn(CC(F)(F)F)c4=O)sc23)c1OC1CC2CNC1C2` (centres unmarked) [Example 526, 3-[[4-[2-(3-azabicyclo[2.2.1]heptan-5-yloxy)-5-chloro-3-methyl-phenyl]thieno[3,2-d]pyrimidin-6-yl]methyl]-1-(2,2,2-trifluoroethyl)pyrimidine-2,4-dione]: the IC50 is less than 1000 nM.

For `Cc1cc(Cl)cc(-c2ccnc3cc(Cn4c(=O)ccn(C(C)C)c4=O)sc23)c1O[C@@H]1CNC[C@@H]1F` [Example 451, 3-[[7-[5-chloro-2-[(3R,4S)-4-fluoropyrrolidin-3-yl]oxy-3-methyl-phenyl]thieno[3,2-b]pyridin-2-yl]methyl]-1-isopropyl-pyrimidine-2,4-dione], the IC50 was less than 1000 nM.

For `CO[C@@H]1CC(=O)N(Cc2cc3nccc(-c4cc(Cl)cc(C)c4O[C@H]4CCCNC4)c3s2)C1=O` [Example 481, (3R)-1-[[7-[5-chloro-3-methyl-2-[[(3S)-3-piperidyl]oxy]phenyl]thieno[3,2-b]pyridin-2-yl]methyl]-3-methoxy-pyrrolidine-2,5-dione; 2,2,2-trifluoroacetic acid], the IC50 is less than 1000 nM.

`Cc1cc(Cl)cc(-c2ccnc3cc(Cn4c(=O)ccn(CC(F)(F)F)c4=O)sc23)c1OC1CC(N2CCOC[C@@H]2C)C1` (stereo partly drawn) [Example 658, 3-[[7-[5-chloro-3-methyl-2-[3-[(3S)-3-methylmorpholin-4-yl]cyclobutoxy]phenyl]thieno[3,2-b]pyridin-2-yl]methyl]-1-(2,2,2-trifluoroethyl)pyrimidine-2,4-dione; 2,2,2-trifluoroacetic acid]: the IC50 is less than 1000 nM.

For the compound `CO[C@H]1CC(=O)N(Cc2cc3nccc(-c4cc(Cl)cc(C)c4O[C@H]4CCCNC4)c3s2)C1=O` [Example 421, (3S)-1-[[7-[5-chloro-3-methyl-2-[[(3S)-3-piperidyl]oxy]phenyl]thieno[3,2-b]pyridin-2-yl]methyl]-3-methoxy-pyrrolidine-2,5-dione; 2,2,2-trifluoroacetic acid], the IC50 is less than 1000 nM.

Take `Cc1cc(Cl)cc(-c2ccnc3cc(Cn4c(=O)ccn(CC(F)(F)F)c4=O)sc23)c1OC1CNC[C@@]1(C)F` (stereo partly drawn) [Example 406, 3-[[7-[5-chloro-2-[(4R)-4-fluoro-4-methyl-pyrrolidin-3-yl]oxy-3-methyl-phenyl]thieno[3,2-b]pyridin-2-yl]methyl]-1-(2,2,2-trifluoroethyl)pyrimidine-2,4-dione; 2,2,2-trifluoroacetic acid]: the IC50 is less than 1000 nM.

For the compound `Cc1cc(Cl)cc(-c2ncnc3cc(Cn4c(=O)ccn(CC(F)(F)F)c4=O)sc23)c1OC1CCNCC1` [Example 527, 3-[[4-[5-chloro-3-methyl-2-(4-piperidyloxy)phenyl]thieno[3,2-d]pyrimidin-6-yl]methyl]-1-(2,2,2-trifluoroethyl)pyrimidine-2,4-dione], the IC50 is less than 1000 nM.

Take `Cc1cc(Cl)cc(-c2ncnc3cc(Cn4c(=O)ccn(C(C)C)c4=O)sc23)c1O[C@@H]1CCN(C)C[C@@H]1C` [Example 510, 3-[[4-[5-chloro-2-[[(3S,4R)-1,3-dimethyl-4-piperidyl]oxy]-3-methyl-phenyl]thieno[3,2-d]pyrimidin-6-yl]methyl]-1-isopropyl-pyrimidine-2,4-dione]: the half-inhibitory concentration (IC50) is less than 1000 nM.
